Measurements taken from PMC11505670, “Four newly synthesized enones induce mitochondrial-mediated apoptosis and G2/M cell cycle arrest in colorectal and cervical cancer cells” (RSC Advances, 2024).

How the values were obtained:
Assay type in all cases: cell-based, human
[1] = system: Bax and Bcl-2 in HeLa cells; test: Flow cytometric analysis of Bax and Bcl-2 expression, HeLa; details: IC50 concentration, 48 h; for Bax/Bcl-2 ratio: from MFI; for Bcl-2 protein expression vs control cells: p < 0.05
Description: (§1) Cells were washed with PBS, fixed, permeabilized using Fixation and Permeabilization Kit (eBioscience), and stained separately for Bcl-2, Bax, and cleaved-caspase-3.[8,9] Permeabilized cells were incubated with primary antibodies: mouse anti-human-Bcl-2 (DC21, sc-783, Santa Cruz Biotech. Inc.), mouse anti-human Bax (N20, sc-493, Santa Cruz Biotech. Inc.), and anti-cleaved caspase-3 (Cell signaling Technology 9661). Following antibody incubation, cells were washed and incubated with secondary Alexa 488-conjugated antibodies (ab185015, Abcam, United Kingdom) for 30 minutes. After an additional wash with PBS, flow cytometry analysis was performed.
(§2) Data were analyzed using FlowJo Software. The expression of Bcl-2 and Bax proteins was quantified as mean fluorescence intensity (MFI). The results were presented with bar graphs. Bax/Bcl-2 index was calculated using the formula […]. The percentage of cells expressing active caspase-3 (MFI) was presented in histograms.

[2] = system: HCT-116 cells; test: Cell cycle analysis (PI, flow cytometry), HCT-116; details: IC50 concentration, 48 h; control 27.4%
Description: (§3) After treatment of HCT-116 and HeLa cells with enones, cells were harvested, washed with PBS, and fixed in 70% ice-cold ethanol at +4 °C overnight.[10] The cells were then pelleted, resuspended in 1 ml PBS containing RNAse A (12091021, Sigma Aldrich), and incubated for 30 min at 37 °C. A staining solution containing propidium iodide (1 mg PI per ml PBS) (B7758, Biotrend) was added to cells, followed by 15 min incubation in the dark. Cells were analyzed by flow cytometer Cytomics FC500. DNA content was determined using Flowing Software and cell cycle distribution was presented by graph (histograms).

[3] = system: cytochrome c in HCT-116 cells; test: Cytochrome c localization by immunofluorescence, HCT-116; details: IC50 concentration, 48 h
Description: After 48 hours of treatment, immunofluorescence analysis of cytochrome c distribution and expression in treated cells was performed using glass coverslips.[10] Following the treatment, cells were washed with PBS, fixed in 4% formaldehyde for 20 min, and permeabilized with 0.2% Tween-20. Blocking was performed using a buffer containing 0.1% Tween-20 and 10% FBS for 30 min. The cells were then incubated for 1 hour at room temperature with a monoclonal mouse anti-human cytochrome c antibody (1:100, G7421, Promega, USA,)
Subsequently, the cells were incubated for 30 minutes with a goat anti-mouse FITC (1:200, diluted in blocking buffer), washed, and images were acquired using an inverted fluorescence microscope (Olympus IX50). Image analysis was performed using ImageJ software.

[4] = system: HeLa cells; test: Annexin V-FITC/7-AAD apoptosis flow cytometry, HeLa; details: IC50 concentration, 48 h
Description: (§4) The type of cell death was assessed using flow cytometry using FITC Annexin V Apoptosis Detection Kit with 7-AAD (640922, Bio legend).[8] […] After treatment, cells were harvested, washed with PBS (resuspended in 100 μl of ice-cold 1X binding buffer), stained (20 μl of 7-AAD and 10 μl of Annexin V-FITC), and incubated in the dark for 15 min at +4 °C. After incubation, 400 μl of binding buffer was added and the samples were analyzed using flow cytometer Cytomics FC500 (Beckman Coulter, USA). Data analysis was performed using FlowJo Software and presented with histogram and dot plots.

[5] = system: Bax and Bcl-2 in HCT-116 cells; test: Flow cytometric analysis of Bax and Bcl-2 expression, HCT-116; details: HCT-116, IC50 concentration, 48 h, from MFI
Description: as §1, §2

[6] = system: HCT-116 cells; test: Annexin V-FITC/7-AAD apoptosis flow cytometry, HCT-116; details: IC50 concentration, 48 h
Description: as §4

[7] = system: HeLa cells; test: Cell cycle analysis (PI, flow cytometry), HeLa; details: IC50 concentration, 48 h; control 29.9%
Description: as §3

[8] = system: HCT-116 cells; test: MTT cytotoxicity assay, HCT-116; details: for percentage of cytotoxic HCT-116 cells compared to HeLa cells (fold) / percentage of cytotoxic HCT-116 cells compared to control MRC-5 cells (fold): 48 h, over the applied doses; for Cytotoxicity range: concentration range 1–100 μM; for Selectivity index (SI): IC50 healthy cells (MRC-5)/IC50 tumor cells; for IC50: MTT
Description: (§5) To examine and compare the antiproliferative activities of four enones, the cytotoxicity of the compounds was assessed by the 3-(4,5-dimethylthiazol-2-yl)-2,5-diphenyltetrazolium bromide (MTT) assay[9] in, colon cancer cells (HCT-116), cervical cancer cell line (HeLa) and human fibroblast lung cell line (MRC-5) that was used as a healthy control cell line. After trypsinization, seeded (5 × 10^3 cells per well in 96-well plates) cells were treated with different concentrations of the investigated enones (1, 3, 10, 30, and 100 μM) during 48 and 72 h period incubation period +37 °C and 5–6.5% CO2. After the incubation period, the medium was removed and MTT solution (5 mg ml^−1) was added to the wells.
(§6) After a 3 hour incubation with the MTT solution, the resulting formazan crystals were dissolved in DMSO (67-68-5, Merck). Absorbance was subsequently measured at 595 nm using a microplate reader (Zenith 3100, Anthos Labtech Instruments). The percentage of cytotoxic cells was determined using the formula: cytotoxicity (%) = (1 − (exp. group (ABS))/(control group (ABS)) × 100). IC50 values were calculated using GraphPad Prism 10 software. The selectivity index (SI) was determined using the formula: SI?IC50 value for healthy cells/IC50 value for tumor cells.[9]

[9] = system: mitochondrial membrane potential (ΔΨm) in HCT-116 cells; test: Mitochondrial membrane potential (ΔΨm) JC-10 analysis, HCT-116; details: IC50 concentration, 48 h
Description: (§7) Changes in the ΔΨm caused by 48 hours of enones treatment, were assessed using JC-10 dye.[10]. (Enzo Life Sciences, Farmingdale, NY, USA).
(§8) In healthy cells, JC-10 dye accumulates in the mitochondria as red fluorescent aggregates. However, upon cell damage, changes in ΔΨm occur and result in dislocation of JC-10 from the mitochondria to the cytosol and the monomerization of aggregates, shifting fluorescence from red to green. Cells were cultured in 24-well plate (3 × 10^4 cells per well) overnight in the incubator (5% CO2, 37 °C). […] Following treatment, cells were washed with warm 1xPBS and incubated with JC-10 dye (2.5 μM in warm PBS) at 5% CO2, 37 °C for 20 minutes. Cells were then washed with 1xPBS and observed using an Olympus IX50 inverted fluorescence microscope. Images were captured and analyzed using ImageJ software. The ratio of fluorescence emissions at 525 and 590 nm was used for quantification analysis.

[10] = system: HeLa cells; test: MTT cytotoxicity assay, HeLa; details: for Selectivity index (SI): IC50 healthy cells (MRC-5)/IC50 tumor cells; for Cytotoxicity range: concentration range 1–100 μM; for IC50: MTT
Description: as §5, §6

[11] = system: mitochondrial membrane potential (ΔΨm) in HeLa cells; test: Mitochondrial membrane potential (ΔΨm) JC-10 analysis, HeLa; details: IC50 concentration, 48 h
Description: as §7, §8

[12] = system: MRC-5 cells; test: MTT cytotoxicity assay, MRC-5 healthy control cells
Description: as §5, §6

[13] = system: active caspase-3 in HeLa cells; test: Flow cytometric analysis of active caspase-3, HeLa; details: IC50 concentration, 48 h, vs control
Description: as §1, §2

[14] = system: active caspase-3 in HCT-116 cells; test: Flow cytometric analysis of active caspase-3, HCT-116; details: IC50 concentration, 48 h, vs control
Description: as §1, §2

[15] = Homo sapiens, MRC5, MRC-5, 48 h
[16] = Homo sapiens, MRC5, MRC-5, 72 h

SMILES	Bax/Bcl-2 ratio [1]	% OF HCT-116 CELLS, G2/M [2] [%]	RELATIVE RATIO OF CYTOSOL CYTC TO MITOCHONDRIAL CYT C IN HCT-116 CELLS [3]	total percentage of apoptotic HeLa cells [4] [%]	Bax/Bcl-2 ratio [5]	increase of percentage of apoptotic HCT-116 cells compared to control HCT-116 cells [6] [fold]	percentage of total apoptotic HCT-116 cells (sum of early and late) [6] [%]	% OF HELA CELLS, G2/M [7] [%]	percentage of cytotoxic HCT-116 cells compared to HeLa cells (fold) [8]	percentage of cytotoxic HCT-116 cells compared to control MRC-5 cells (fold) [8]	Cytotoxicity range ([8]; HCT-116, 48 h)	Selectivity index (SI) ([8]; HCT-116, 48 h)	Cytotoxicity range ([8]; HCT-116, 72 h)	Selectivity index (SI) ([8]; HCT-116, 72 h)	IC50 ([8]; Homo sapiens, HCT-116, 48 h) [µM]	IC50 ([8]; Homo sapiens, HCT-116, 72 h) [µM]	JC10-green/JC10 red ratio in HCT-116 cells [9]	Selectivity index (SI) ([10]; 48 h)	Cytotoxicity range ([10]; 48 h)	Cytotoxicity range ([10]; 72 h)	other results
COc1cc(/C=C/C(=O)CC(C)C)ccc1OCC(=O)O [E3, (E)-2-(2-Methoxy-4-(5-methyl-3-oxohex-1-en-1-yl)phenoxy)acetic acid]	0.9	54.1	1.1	35.63	1.6	7.4	51.68	58.3	2.05–2.1 fold	4.4–6.9 fold	11.23–75.08%	14.71	66.85–70.44%	42.68	6.8 ± 1.01	1.64 ± 0.01	1.4	5.50	5.47–33.95%	40.39–59.92%	Selectivity index (SI) ([10]; 72 h): 17.67; IC50 ([10]; Homo sapiens, 48 h): 18.2 ± 1.33 µM; IC50 ([10]; Homo sapiens, 72 h): 3.96 ± 0.1 µM; JC10-green/JC10 red ratio in HeLa cells [11]: 1.3; IC50 [12, 15]: > 100 µM; IC50 [12, 16]: > 70 µM
COc1cc(/C=C/C(C)=O)ccc1OCC(=O)O [E1, (E)-2-(2-Methoxy-4-(3-oxobut-1-en-1-yl)phenoxy)acetic acid]	1.1	50.4	1.2	43.03	1.8	8.5	59.5	66.9	1.8–3.6 fold	4.1–4.4 fold	11.23–72.91%	24.75	65.85–73.44%	58.03	6.06 ± 0.96	1.12 ± 0.01	1.6	8.67	3.12–39.24%	39.35–61%	Bcl-2 protein expression vs control cells [1]: decreased; MFI of active caspase-3 in HeLa (fold change) [13]: 1.9 fold change; MFI of active caspase-3 in HCT-116 (fold change) [14]: 2.1 fold change; IC50 ([10]; Homo sapiens, 48 h): 17.3 ± 1.19 µM; IC50 ([10]; Homo sapiens, 72 h): 3.59 ± 0.03 µM; JC10-green/JC10 red ratio in HeLa cells [11]: 1.4; IC50 [12, 15]: > 150 µM; IC50 [12, 16]: > 65 µM
COc1cc(/C=C/C(=O)C(C)C)ccc1OCC(=O)O [E2, (E)-2-(2-Methoxy-4-(4-methyl-3-oxopent-1-en-1-yl)phenoxy)acetic acid]	1.4	56.1	1.5	54.02	1.9	8.8	61.6	66	1.3–2.3 fold	2.9–5.2 fold	10.87–71.88%	39.22	65.23–72.73%	100.63	5.1 ± 0.92	0.9 ± 0.02	2.15	14.96	4.74–51.94%	32.98–71.66%	Bcl-2 protein expression vs control cells [1]: decreased; MFI of active caspase-3 in HeLa (fold change) [13]: 2 fold change; MFI of active caspase-3 in HCT-116 (fold change) [14]: 2.4 fold change; Selectivity index (SI) ([10]; 72 h): 26.23; IC50 ([10]; Homo sapiens, 48 h): 13.4 ± 1.43 µM; IC50 ([10]; Homo sapiens, 72 h): 3.43 ± 0.09 µM; JC10-green/JC10 red ratio in HeLa cells [11]: 1.9; IC50 [12, 15]: > 200 µM; IC50 [12, 16]: > 90 µM
N.N.[Cl][Pt][Cl] [CP, Cisplatin, reference compound]	–	–	–	42.38	–	–	–	–	–	–	–	–	–	–	–	–	–	–	–	–	IC50 ([8]; HCT-116, 48 h): 13.6 µM; IC50 ([8]; HCT-116, 72 h): 7.08 ± 0.13 µM; IC50 ([10]; 48 h): 16.5 µM; IC50 ([10]; 72 h): 3.62 ± 0.09 µM; IC50 ([12]; MRC-5, 48 h): > 30 µM; IC50 ([12]; MRC-5, 72 h): > 85 µM
